Test results published in patent US11325899B2, “Benzofurane and benzothiophene derivatives as PGE2 receptor modulators” (IDORSIA PHARMACEUTICALS LTD, priority 2017, dated 2022).

Key:
Format in all cases: cell-based
PTGER2 (EP2) = target: T1, PTGER2 (EP2) (Homo sapiens, UniProt P43116); test: hEP2 b-arrestin assay (PathHunter HEK 293 PTGER2 b-arrestin cells); details: antagonistic activity, beta-arrestin assay; read-out: hEP2 b-arr IC50
T1 construct: host or cells: HEK 293 (PathHunter PTGER2 b-arrestin cell line)
T1 sequence (P43116 whole entry): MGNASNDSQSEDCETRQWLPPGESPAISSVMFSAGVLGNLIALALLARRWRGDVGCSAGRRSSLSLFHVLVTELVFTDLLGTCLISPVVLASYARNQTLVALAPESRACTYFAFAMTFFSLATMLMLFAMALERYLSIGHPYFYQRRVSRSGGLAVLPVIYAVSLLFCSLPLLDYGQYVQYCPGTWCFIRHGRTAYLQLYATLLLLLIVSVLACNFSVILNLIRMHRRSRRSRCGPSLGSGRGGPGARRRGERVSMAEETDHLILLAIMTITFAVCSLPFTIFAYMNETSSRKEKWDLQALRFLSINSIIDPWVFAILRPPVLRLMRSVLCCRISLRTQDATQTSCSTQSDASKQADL
How it was run: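 PathHunter HEK293 cells with ProLink-tagged EP2 and EA-β-arrestin 2 preincubated 15 min at 37 °C with compound (10 μM-2 nM or 1 μM-0.2 nM), then stimulated 120 min with 5 μM PGE2 (EC80). β-gal complementation read by chemiluminescence; IC50 from duplicate dose-response versus DMSO.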

PTGER4 (EP4) = target: T2, PTGER4 (EP4) (Homo sapiens, UniProt P35408); test: hEP4 b-arrestin assay (PathHunter HEK 293 PTGER4 b-arrestin cells); details: antagonistic activity, beta-arrestin assay; read-out: hEP4 b-arr IC50
T2 construct: host or cells: HEK 293 (PathHunter PTGER4 b-arrestin cell line)
T2 sequence (P35408 whole entry): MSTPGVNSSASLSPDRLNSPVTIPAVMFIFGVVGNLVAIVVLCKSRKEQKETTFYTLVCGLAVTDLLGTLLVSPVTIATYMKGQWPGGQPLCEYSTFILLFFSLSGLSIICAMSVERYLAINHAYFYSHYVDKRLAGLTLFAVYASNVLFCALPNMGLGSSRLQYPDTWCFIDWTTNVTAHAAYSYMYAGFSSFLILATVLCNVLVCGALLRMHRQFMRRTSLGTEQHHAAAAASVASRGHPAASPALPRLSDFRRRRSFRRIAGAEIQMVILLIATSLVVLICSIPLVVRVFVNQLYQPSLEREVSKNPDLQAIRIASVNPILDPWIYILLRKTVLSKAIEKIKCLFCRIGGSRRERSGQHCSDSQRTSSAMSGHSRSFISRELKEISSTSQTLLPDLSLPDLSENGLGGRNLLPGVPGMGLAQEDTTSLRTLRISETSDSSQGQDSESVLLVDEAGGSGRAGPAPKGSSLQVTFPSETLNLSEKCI
How it was run: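 PathHunter HEK 293 cells expressing ProLink-tagged human EP4 and EA-β-arrestin 2, seeded 24 h before. Compounds (10 μM–2 nM or 1 μM–0.2 nM) preincubated 15 min at 37 °C, then 20 nM PGE2 (EC80) for 120 min at 37 °C. β-gal complementation luminescence read; IC50 from duplicate dose-response curves versus DMSO control.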

EP4 receptor = target: T3, EP4 receptor (Homo sapiens, UniProt P35408); test: hEP4 cAMP assay (BT549 breast cancer cells, HTRF cAMP, PGE2 stimulation); details: antagonistic activity, PGE2 6 nM (EC80)
T3 construct: BT549 breast cancer cells, express high endogenous EP4 levels and very low EP2 levels; host or cells: BT549 breast cancer cells
T3 sequence (P35408 whole entry): as above
How it was run: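 BT549 cells, with endogenous EP4 and very low EP2, were preincubated 45 min at room temperature with compound in HBSS/HEPES/BSA buffer with 2 mM IBMX. They were then stimulated 30 min with 6 nM PGE2 (EC80). cAMP was measured by HTRF competitive immunoassay against a calibrator; IC50 from duplicate dose-response as % of DMSO control.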

| SMILES | IC50 (PTGER2 (EP2)) [nM] | IC50 (PTGER4 (EP4)) [nM] | IC50 (EP4 receptor) [nM] |
| --- | --- | --- | --- |
| CCOc1cc(-c2cc(NCCc3c(C)sc4c(C)cccc34)ncn2)ccc1CC(=O)O [Example 109, (4-{6-[2-(2,7-Dimethyl-benzo[b]thiophen-3-yl)-ethylamino]-pyrimidin-4-yl}-2-ethoxy-phenyl)-acetic acid] | 24 | 405 | 290 |
| CCOc1cc(-c2cc(NCCc3c(C)sc4c(C)cc(F)cc34)ncn2)ccc1CC(=O)O [Example 110, (2-Ethoxy-4-{6-[2-(5-fluoro-2,7-dimethyl-benzo[b]thiophen-3-yl)-ethylamino]-pyrimidin-4-yl}-phenyl)-acetic acid] | 25 | 403 | 296 |
| CCOc1cc(-c2cc(NCCc3c(C)sc4c(C)c(F)ccc34)ncn2)ccc1CC(=O)O [Example 112, (2-Ethoxy-4-{6-[2-(6-fluoro-2,7-dimethyl-benzo[b]thiophen-3-yl)-ethylamino]-pyrimidin-4-yl}-phenyl)-acetic acid] | 42 | 665 | 450 |
| Cc1sc2c(C)cc(F)cc2c1CCNc1cc(-c2ccc(C(=O)O)c(OC(F)F)c2)ncn1 [Example 115, 2-Difluoromethoxy-4-{6-[2-(5-fluoro-2,7-dimethyl-benzo[b]thiophen-3-yl)-ethylamino]-pyrimidin-4-yl}-benzoic acid] | 16 | 208 | 60 |
| COc1ccc(Cl)c2c(CCNc3cc(-c4ccc(C(=O)O)c(OC(F)F)c4)ncn3)c(C)sc12 [Example 116, 4-{6-[2-(4-Chloro-7-methoxy-2-methyl-benzo[b]thiophen-3-yl)-ethylamino]-pyrimidin-4-yl}-2-difluoromethoxy-benzoic acid] | 30 | 297 | 223 |
| CCOc1cc(-c2cc(NCCc3c(C)sc4c(OC)ccc(F)c34)ncn2)ccc1OCC(=O)O [Example 117, (2-Ethoxy-4-{6-[2-(4-fluoro-7-methoxy-2-methyl-benzo[b]thiophen-3-yl)-ethylamino]-pyrimidin-4-yl}-phenoxy)-acetic acid] | 20 | 23 | 54 |
| CCOc1cc(-c2cc(NCCc3c(C)sc4c(C)ccc(F)c34)ncn2)ccc1OCC(=O)O [Example 118, (2-Ethoxy-4-{6-[2-(4-fluoro-2,7-dimethyl-benzo[b]thiophen-3-yl)-ethylamino]-pyrimidin-4-yl}-phenoxy)-acetic acid] | 16 | 29 | 87 |
| CCOc1cc(-c2cc(NCCc3c(C)sc4c(C)c(F)ccc34)ncn2)ccc1OCC(=O)O [Example 119, (2-Ethoxy-4-{6-[2-(6-fluoro-2,7-dimethyl-benzo[b]thiophen-3-yl)-ethylamino]-pyrimidin-4-yl}-phenoxy)-acetic acid] | 21 | 143 | 110 |
| CCOc1cc(-c2cc(NCCc3c(C)oc4c(Cl)cccc34)ncn2)ccc1OCC(=O)O [Example 120, (4-{6-[2-(7-Chloro-2-methyl-benzofuran-3-yl)-ethylamino]-pyrimidin-4-yl}-2-ethoxy-phenoxy)-acetic acid] | 29 | 290 | 123 |
| CCOc1cc(-c2cc(NCCc3c(C)oc4c(OC)cc(Cl)cc34)ncn2)ccc1OCC(=O)O [Example 121, (4-{6-[2-(5-Chloro-7-methoxy-2-methyl-benzofuran-3-yl)-ethylamino]-pyrimidin-4-yl}-2-ethoxy-phenoxy)-acetic acid] | 27 | 75 | 129 |
| CCOc1cc(-c2cc(NCCc3c(C)sc4c(C)cccc34)ncn2)ccc1OCC(=O)O [Example 122, (4-{6-[2-(2,7-Dimethyl-benzo[b]thiophen-3-yl)-ethylamino]-pyrimidin-4-yl}-2-ethoxy-phenoxy)-acetic acid] | 14 | 83 | 136 |
| CCCCOc1cc(-c2cc(NCCc3c(C)sc4c(C)cc(F)cc34)ncn2)ccc1C(=O)O [Example 127, 2-Butoxy-4-{6-[2-(5-fluoro-2,7-dimethyl-benzo[b]thiophen-3-yl)-ethylamino]-pyrimidin-4-yl}-benzoic acid] | 16 | 225 | 873 |
| Cc1oc2ccccc2c1CCNc1cc(-c2ccc(C(=O)O)c(SC3CCC3)c2)ncn1 [Example 129, 2-Cyclobutylsulfanyl-4-{6-[2-(2-methyl-benzofuran-3-yl)-ethylamino]-pyrimidin-4-yl}-benzoic acid] | 6 | 1410 | 795 |
| Cc1sc2c(C)cccc2c1CCNc1cc(-c2ccc(C(=O)O)c(SC3CCC3)c2)ncn1 [Example 130, 2-Cyclobutylsulfanyl-4-{6-[2-(2,7-dimethyl-benzo[b]thiophen-3-yl)-ethylamino]-pyrimidin-4-yl}-benzoic acid] | 12 | 193 | 980 |
| Cc1sc2c(C)cccc2c1CCNc1cc(-c2ccc(C(=O)O)c(SC3COC3)c2)ncn1 [Example 131, 4-{6-[2-(2,7-Dimethyl-benzo[b]thiophen-3-yl)-ethylamino]-pyrimidin-4-yl}-2-(oxetan-3-ylsulfanyl)-benzoic acid] | 12 | 1220 | 625 |
| O=C(O)c1ccc(-c2cc(NCCc3csc4ccccc34)ncn2)cc1OC1CCC1 [Example 132, 4-[6-(2-Benzo[b]thiophen-3-yl-ethylamino)-pyrimidin-4-yl]-2-cyclobutoxy-benzoic acid] | 58 | 561 | 166 |
| COc1cc(Cl)cc2c(CCNc3cc(-c4ccc(C(=O)O)c(OC5CCC5)c4)ncn3)c(C)oc12 [Example 133, 4-{6-[2-(5-Chloro-7-methoxy-2-methyl-benzofuran-3-yl)-ethylamino]-pyrimidin-4-yl}-2-cyclobutoxy-benzoic acid] | 25 | 74 | 170 |
| COc1ccc(F)c2c(CCNc3cc(-c4ccc(C(=O)O)c(OC5CCC5)c4)ncn3)c(C)sc12 [Example 134, 2-Cyclobutoxy-4-{6-[2-(4-fluoro-7-methoxy-2-methyl-benzo[b]thiophen-3-yl)-ethylamino]-pyrimidin-4-yl}-benzoic acid] | 27 | 893 | 194 |
| COc1ccc(Cl)c2c(CCNc3cc(-c4ccc(C(=O)O)c(OC5CCC5)c4)ncn3)c(C)sc12 [Example 135, 4-{6-[2-(4-Chloro-7-methoxy-2-methyl-benzo[b]thiophen-3-yl)-ethylamino]-pyrimidin-4-yl}-2-cyclobutoxy-benzoic acid] | 14 | 235 | 198 |
| Cc1sc2c(C)ccc(F)c2c1CCNc1cc(-c2ccc(C(=O)O)c(OC3CCC3)c2)ncn1 [Example 136, 2-Cyclobutoxy-4-{6-[2-(4-fluoro-2,7-dimethyl-benzo[b]thiophen-3-yl)-ethylamino]-pyrimidin-4-yl}-benzoic acid] | 13 | 155 | 411 |
| Cc1oc2c(Cl)cccc2c1CCNc1cc(-c2ccc(C(=O)O)c(OC3CCC3)c2)ncn1 [Example 137, 4-{6-[2-(7-Chloro-2-methyl-benzofuran-3-yl)-ethylamino]-pyrimidin-4-yl}-2-cyclobutoxy-benzoic acid] | 15 | 258 | 423 |
| Cc1sc2c(C)cc(F)cc2c1CCNc1cc(-c2ccc(C(=O)O)c(OC3CCC3)c2)ncn1 [Example 138, 2-Cyclobutoxy-4-{6-[2-(5-fluoro-2,7-dimethyl-benzo[b]thiophen-3-yl)-ethylamino]-pyrimidin-4-yl}-benzoic acid] | 14 | 269 | 478 |
| COc1ccc(F)c2c(CCNc3cc(-c4ccc(C(=O)O)c(OC5CCC5)c4)ncn3)c(C)oc12 [Example 139, 2-Cyclobutoxy-4-{6-[2-(4-fluoro-7-methoxy-2-methyl-benzofuran-3-yl)-ethylamino]-pyrimidin-4-yl}-benzoic acid] | 51 | 209 | 481 |
| Cc1oc2c(C)cc(F)cc2c1CCNc1cc(-c2ccc(C(=O)O)c(OC3CCC3)c2)ncn1 [Example 140, 2-Cyclobutoxy-4-{6-[2-(5-fluoro-2,7-dimethyl-benzofuran-3-yl)-ethylamino]-pyrimidin-4-yl}-benzoic acid] | 37 | 1420 | 580 |
| COc1cc(F)c(F)c2c(CCNc3cc(-c4ccc(C(=O)O)c(OC5CCC5)c4)ncn3)c(C)oc12 [Example 141, 2-Cyclobutoxy-4-{6-[2-(4,5-difluoro-7-methoxy-2-methyl-benzofuran-3-yl)-ethylamino]-pyrimidin-4-yl}-benzoic acid] | 140 | 340 | 582 |
| CCOc1cc(-c2cc(NCCc3c(C)sc4c(C)cc(F)cc34)ncn2)ccc1-c1nnn[nH]1 [Example 142, {6-[3-Ethoxy-4-(1H-tetrazol-5-yl)-phenyl]-pyrimidin-4-yl}-[2-(5-fluoro-2,7-dimethyl-benzo[b]thiophen-3-yl)-ethyl]-amine] | 12 | 41 | 105 |
